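Growth conditions: 96-well plates. Treatment: test compound, 48 hours, 5 concentrations. Analysis: linear interpolation between bracketing concentrations; unreached endpoints set to highest concentration. At the TGI there is no net growth.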
How the values were obtained:
Assay in all cases: NCI anticancer screen, dose series, 48 h
SF-268 CNS = tested on: SF-268 CNS
LOX IMVI melanoma = tested on: LOX IMVI melanoma
EKVX NSCLC = tested on: EKVX NSCLC
SF-539 CNS = tested on: SF-539 CNS
K-562 leukemia = tested on: K-562 leukemia
HOP-62 NSCLC = tested on: HOP-62 NSCLC
SNB-19 CNS = tested on: SNB-19 CNS
RPMI-8226 leukemia = tested on: RPMI-8226 leukemia
TK-10 renal = tested on: TK-10 renal
UACC-62 melanoma = tested on: UACC-62 melanoma
NCI-H23 lung = tested on: NCI-H23 lung
M19-MEL melanoma = tested on: M19-MEL melanoma
DLD-1 colon = tested on: DLD-1 colon
HL-60(TB) leukemia = tested on: HL-60(TB) leukemia
CAKI-1 renal = tested on: CAKI-1 renal
M14 melanoma = tested on: M14 melanoma
U251 CNS = tested on: U251 CNS
NCI-H226 lung = tested on: NCI-H226 lung
HOP-92 NSCLC = tested on: HOP-92 NSCLC
SR leukemia = tested on: SR leukemia
CCRF-CEM leukemia = tested on: CCRF-CEM leukemia
A549 NSCLC = tested on: A549 NSCLC
NCI-H460 lung = tested on: NCI-H460 lung
SK-MEL-2 melanoma = tested on: SK-MEL-2 melanoma
OVCAR-5 ovarian = tested on: OVCAR-5 ovarian
OVCAR-4 ovarian = tested on: OVCAR-4 ovarian
OVCAR-3 ovarian = tested on: OVCAR-3 ovarian
ACHN renal = tested on: ACHN renal
SK-MEL-28 melanoma = tested on: SK-MEL-28 melanoma
NCI-H522 lung = tested on: NCI-H522 lung
HT29 colon = tested on: HT29 colon
MOLT-4 leukemia = tested on: MOLT-4 leukemia
HCT-116 colon = tested on: HCT-116 colon
XF 498 CNS = tested on: XF 498 CNS
HCT-15 colon = tested on: HCT-15 colon
IGROV1 ovarian = tested on: IGROV1 ovarian
OVCAR-8 ovarian = tested on: OVCAR-8 ovarian
MALME-3M melanoma = tested on: MALME-3M melanoma
HCC-2998 colon = tested on: HCC-2998 colon
SF-295 CNS = tested on: SF-295 CNS
SNB-78 CNS = tested on: SNB-78 CNS
HOP-18 NSCLC = tested on: HOP-18 NSCLC
SN12C renal = tested on: SN12C renal
SK-MEL-5 melanoma = tested on: SK-MEL-5 melanoma
LXFL 529 NSCLC = tested on: LXFL 529 NSCLC
RXF 393 renal = tested on: RXF 393 renal
SW-620 colon = tested on: SW-620 colon
UACC-257 melanoma = tested on: UACC-257 melanoma
SK-OV-3 ovarian = tested on: SK-OV-3 ovarian
KM12 colon = tested on: KM12 colon
DMS 114 small cell lung = tested on: DMS 114 small cell lung
UO-31 renal = tested on: UO-31 renal
786-0 renal = tested on: 786-0 renal

Measured: TGI

O=C1C2Nc3ccccc3SC2C(=O)N1c1ccccc1C(F)(F)F (stereo not drawn)
45.2 µM: U251 CNS
41 µM: SF-539 CNS
78.2 µM: SN12C renal
60.3 µM: NCI-H23 lung
28.1 µM: HL-60(TB) leukemia
60.6 µM: OVCAR-3 ovarian
23.7 µM: RXF 393 renal
46.2 µM: SF-295 CNS
65.5 µM: HCT-15 colon
35.7 µM: HCC-2998 colon
53.6 µM: SNB-78 CNS
68.5 µM: 786-0 renal
> 100 µM: SF-268 CNS | LOX IMVI melanoma | EKVX NSCLC | K-562 leukemia | HOP-62 NSCLC | SNB-19 CNS | RPMI-8226 leukemia | TK-10 renal | UACC-62 melanoma | M19-MEL melanoma | DLD-1 colon | CAKI-1 renal | NCI-H226 lung | HOP-92 NSCLC | SR leukemia | CCRF-CEM leukemia | A549 NSCLC | NCI-H460 lung | SK-MEL-2 melanoma | OVCAR-5 ovarian | OVCAR-4 ovarian | ACHN renal | SK-MEL-28 melanoma | HT29 colon | MOLT-4 leukemia | HCT-116 colon | IGROV1 ovarian | OVCAR-8 ovarian | MALME-3M melanoma | HOP-18 NSCLC | SK-MEL-5 melanoma | LXFL 529 NSCLC | SW-620 colon | UACC-257 melanoma | SK-OV-3 ovarian | KM12 colon | DMS 114 small cell lung | UO-31 renal
53.2 µM: XF 498 CNS
56.3 µM: NCI-H522 lung
75.8 µM: M14 melanoma

From PubChem BioAssay (NCI)
